{"source": "patent US8846316B2", "about": "“Biomarker for human liver cancer” (Industrial Technology Research Institute, priority 2012, dated 2014)", "tested_on": "miR-129-2 expression", "test": "miR-129-2 expression by qRT-PCR after 5-aza-cytidine treatment of HCC cells", "type": "cell-based, human", "details": "5 μM 5-azaC for 3 days", "description": "Hepatoma cell lines, HepG2, HuH7, J7, Hep3B, Mahlavu and SK-Hep-1 were maintained in Dulbecco's modified Eagle's medium at 37° C. in a humidified, 5% CO2 incubator. Twenty-four hours prior to treatment, HuH7 cells (1×10^5 cells/well) and other hepatoma cells (3×10^5 cells/well) were seeded into 6-well plates. Cells were treated with 5 μM 5-azaC (Sigma) for 3 days. Culture medium was replaced every 24 hours with fresh media containing 5-azaC.\nTotal RNA of hepatoma cells and HCC clinical samples was extracted using TRIzol reagent (Invitrogen). cDNA synthesis was performed with Superscript III reverse transcriptase according to the manufacturer's instructions (Invitrogen). Real-time quantitative polymerase chain reaction was performed on the ABI Prism 7000 sequence detection System using the SYBR Green PCR master mix (Applied Biosystems). For analysis of mature miRNA expression, TaqMan miRNA assay system (Applied Biosystems) was used as the manufacturer's manual. The relative expression level was analyzed by the ΔΔCt method, and U6 and RNU44 were used as an internal control.\nIn order to evaluate whether miR-129-2 expression was regulated by DNA methylation, the expression level of miR-129-2 between normal liver cells and HCC cells was examined by quantitative reverse transcription PCR.", "data": [{"molecule": "Nc1ncn([C@@H]2O[C@H](CO)[C@@H](O)[C@H]2O)c(=O)n1", "note": "[5-aza-cytidine]", "values": [{"measurement": "miR-129-2 expression level elevated compared with untreated cell", "setting": "HuH7 cell", "result": 2.5, "unit": "fold"}, {"measurement": "miR-129-2 expression level elevated compared with untreated cell", "setting": "J7 cell", "result": 16, "unit": "fold"}]}]}
